Columns and labels:
GLP-1R [1] = target: T1, GLP-1R (Homo sapiens, UniProt P43220); test: GLP-1 PAM EC20 assay: dosing compound in the presence of fixed GLP-1 (9-36), direct cAMP response; assay type: cell-based; details: compound dose response in presence of EC20 GLP-1 (9-36); for EC50: GLP-1R CRE-bla CHO-K1 cells; for EC20 GLP-1 (9-36) PAM max cAMP: total cAMP from standard curve
T1 construct: host or cells: CRE-bla CHO-K1
Protocol: GLP-1 PAM EC20 Assay: Dosing Compound in the Presence of Fixed GLP-1 (9-36)-Direct cAMP Response
GLP-1R CRE-bla CHO-K1 cells were seeded into 384-well white flat bottom plates at 10,000 cells/well/20 μL culture media (same culture media used for PAM shift assay) and incubated for 18 h at 37° C. in 5% CO2. Compound dose response curves (12-point) and a separate 30×EC20 GLP-1 (9-36) stock solution were generated in assay buffer (same assay buffer used for PAM shift assay) in presence of 1.5 mM IBMX and 12.5% DMSO. Cells were washed 1× with assay buffer prior to adding 3 μL of compound dose response curve and 0.5 μL EC20 GLP-1 (9-36) to 12 μL assay buffer and incubated for 30 min at 37° C. Direct detection of cAMP was carried out using DiscoveRx HitHunter cAMP kit according to manufacturer's instructions (substituting 5 μL Antibody portion with 2 μL) and luminescence was read using a SpectraMax M5 plate reader. Luminescence signal was converted to total cAMP using a cAMP standard curve and data was analyzed by non-linear regression to determine the EC50 values for cAMP dose response curves.

GLP-1R [2] = test: Size exclusion chromatography peak shift assay (stability induction on GLP-1R); assay type: binding; details: relative to apo protein and a positive control; effect on dimer stability
From the text: Generation of GLP-1R Protein Used in the Stability Induction Assay
A synthetic gene for a modified GLP-1R enhanced for expression in insect cells was created using overlap extension PCR to encode the amino acid sequence containing a signal peptide, N-terminal Flag (Sigma) epitope tag, mGLP-1R, GFP and a 10× histidine tag.
This gene product was cloned into the insect cell transfer vector, pFastBac 1 (Invitrogen) for transposition into the baculovirus DNA hosted in the DH10Bac strain E. coli. […] High titer viral stock of the recombinant GLP-1R baculovirus was recovered and used to infect a healthy population of SF9 insect cells for expression under the control of the ^ie1GP64 baculovirus promoter (EMD biosciences).
Recombinant protein was isolated from the membranes of the insect cells by extraction using 1% β-dodecylmaltopyranoside followed by purification using immobilized metal affinity chromatography resin and standard protocols After elution the protein was analyzed by analytical size exclusion chromatography to determine its retention time relative to an unliganded receptor.
Size Exclusion Chromatography Peak Shift Assay—Characterization of Stability Induction for Compounds
The protein's hydrodynamic radius was analyzed on an analytical size exclusion chromatography column (Sepax Zenix SEC-300 250 mm×4.6 mm column) equilibrated with 20 mM Hepes pH 7.5, 500 mM NaCl, 2% v/v glycerol, 0.05% w/v DDM and 0.01% w/v CHS and attached to a Dionex Ultimate HPLC which continuously pumped running buffer at a flow rate of 0.5 mL/min. The HPLC was equipped with an ultraviolet absorption and a fluorescence detector which enabled detection of total protein absorbance and GFP fluorescent emission respectively. The peak profiles of the GLP-1R in the presence of multiple compounds could be determined from impure mixtures using fluorescence detection.
Each tested compound was assayed for its ability to alter the hydrodynamic radius. This change can manifest as either a positive or negative shift in retention time in the peak shift assay. A positive shift represents a decrease in apparent molecular weight of the complex, while a negative shift represents an increase in size. Compounds that result in a negative shift in retention time (i.e. increased size) may do so by destabilizing the receptor or by causing non-specific aggregation. Compounds that result in a positive shift in retention time (i.e. decreased size) may do so either by stabilizing the receptor in a more compact conformation or by disrupting the oligomeric state (e.g. Dimer→monomer transition).
For this assay we reported the relative shift in retention time of each compound with respect to the apo protein (without ligand) and a positive control.

T1 sequence (P43220 24-463): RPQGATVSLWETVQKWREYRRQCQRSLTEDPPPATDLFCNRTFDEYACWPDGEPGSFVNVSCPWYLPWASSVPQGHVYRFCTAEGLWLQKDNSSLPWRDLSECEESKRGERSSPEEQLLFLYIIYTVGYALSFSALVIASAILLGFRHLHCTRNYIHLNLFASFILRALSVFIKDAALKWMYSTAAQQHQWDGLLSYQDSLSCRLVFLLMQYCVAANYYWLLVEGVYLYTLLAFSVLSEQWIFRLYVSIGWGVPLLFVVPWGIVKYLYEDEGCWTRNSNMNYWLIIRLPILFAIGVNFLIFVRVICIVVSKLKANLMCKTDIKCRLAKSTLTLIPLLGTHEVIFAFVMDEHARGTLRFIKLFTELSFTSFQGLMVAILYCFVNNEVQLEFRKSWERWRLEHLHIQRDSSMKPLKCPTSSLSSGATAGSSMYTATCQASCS
T1 sequence (P01275 100-127 partner limits assumed): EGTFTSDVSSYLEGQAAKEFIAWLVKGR

Row | Structure (SMILES) | EC50 (GLP-1R [1]) | EC20 GLP-1 (9-36) PAM max cAMP (GLP-1R [1]) | PEAK SHIFT ASSAY (relative shift in retention time, normalized 0 to 5 positive, −5 to 0 negative) (GLP-1R [2])
1 | COc1cc(CC(NC(=O)c2ccc(NC(=O)C3CCCC3)cc2)C(=O)O)ccc1OC(=O)c1ccccc1 (stereo not shown) [Compound 266] |  |  | 0.88
2 | COc1cc(CC(NC(=O)c2ccc(NC(=O)C3CCCC3)cc2)C(=O)O)ccc1OC(=O)c1ccccc1OC(C)=O (stereo not shown) [Compound 267] |  |  | 0.25
3 | COc1ccc(C(=O)Oc2ccc(CC(NC(=O)c3ccc(NC(=O)C4CCCC4)cc3)C(=O)O)cc2OC)cc1 (stereo not shown) [Compound 268] |  |  | 0.46
4 | COc1cc(CC(NC(=O)c2ccc(NC(=O)C3CCCC3)cc2)C(=O)O)ccc1OC(=O)c1ccc(C#N)cc1 (stereo not shown) [Compound 269] |  |  | 0.34
5 | COc1cc(CC(NC(=O)c2ccc(NC(=O)C3CCCC3)cc2)C(=O)O)ccc1OC(=O)c1ccccc1COC(=O)c1ccccc1 (stereo not shown) [Compound 270] |  |  | 0
6 | CCCN(CCC)S(=O)(=O)c1ccc(C(=O)Oc2ccc(CC(NC(=O)c3ccc(NC(=O)C4CCCC4)cc3)C(=O)O)cc2OC)cc1 (stereo not shown) [Compound 271] |  |  | 0.52
7 | COc1cc(CC(NC(=O)c2ccc(NC(=O)C3CCCC3)cc2)C(=O)O)ccc1OC(=O)c1ccc(NC(=O)C2CCCC2)cc1 (stereo not shown) [Compound 272] |  |  | −1.15
8 | COc1cc(CC(NC(=O)c2ccc(NC(=O)C3CCCC3)cc2)C(=O)O)ccc1OC(=O)c1ccc(NC(C)=O)cc1 (stereo not shown) [Compound 274, 3-(4-((4-acetamidobenzoyl)oxy)-3-methoxyphenyl)-2-(4-(cyclopentanecarboxamido)benzamido)propanoic acid] |  |  | 0.83
9 | COc1cc(CC(NC(=O)c2ccc(NC(=O)C3CCCC3)cc2)C(=O)O)ccc1OC(=O)c1ccc(-c2ccccc2)cc1 (stereo not shown) [Compound 275] |  |  | 0

Second part, led by results:

Row | EC50 (GLP-1R [1]) | EC20 GLP-1 (9-36) PAM max cAMP (GLP-1R [1]) | Structure (SMILES) | PEAK SHIFT ASSAY (relative shift in retention time, normalized 0 to 5 positive, −5 to 0 negative) (GLP-1R [2])
10 | > 20 µM | 0.189 µM | CCCCCCCOc1ccc(C(=O)Oc2ccc(CC(NC(=O)c3ccc(OC)cc3)C(=O)O)cc2OC)cc1 (stereo not shown) [Compound 2, 3-(4-((4-(heptyloxy)benzoyl)oxy)-3-methoxyphenyl)-2-(4-methoxybenzamido)propanoic acid] | 
11 | 3.67 µM | 0.237 µM | CCCCCCCOc1ccc(C(=O)Oc2ccc(C[C@H](NC(=O)c3ccc(C(C)(C)C)cc3)C(=O)O)cc2)cc1 [Compound 57, (S)-2-(4-(tert-butyl)benzamido)-3-(4-((4-(heptyloxy)benzoyl)oxy)phenyl)propanoic acid] | 
12 | > 10 µM | 0.072 µM | CCCCCCCOc1ccc(C(=O)Oc2ccc(C[C@H](NC(=O)c3ccc(OC)cc3)C(=O)O)cc2)cc1 [Compound 63] | 
13 | 5.49 µM | 0.204 µM | CCCCCCCOc1ccc(C(=O)Oc2ccc(CC(NC(=O)c3ccc(NC(=O)COCc4ccccc4)cc3)C(=O)O)cc2OC)cc1 (stereo not shown) [Compound 103, 2-(4-(2-(benzyloxy)acetamido)benzamido)-3-(4-((4-(heptyloxy)benzoyl)oxy)-3-methoxyphenyl)propanoic acid] | 
14 | 4.05 µM | 0.174 µM | CCCCCCCOc1ccc(C(=O)Oc2ccc(CC(NC(=O)c3ccc(NC(=O)Cc4ccc(OC)cc4)cc3)C(=O)O)cc2OC)cc1 (stereo not shown) [Compound 120, 3-(4-((4-(heptyloxy)benzoyl)oxy)-3-methoxyphenyl)-2-(4-(2-(4-methoxyphenyl)acetamido)benzamido)propanoic acid] | 
15 | 6.31 µM | 0.098 µM | CCCCCCCOc1ccc(C(=O)Oc2ccc(C[C@H](NC(=O)c3ccc(NC(=O)Cc4ccc(OC)cc4)cc3)C(=O)O)cc2)cc1 [Compound 178, (S)-3-(4-((4-(heptyloxy)benzoyl)oxy)phenyl)-2-(4-(2-(4-methoxyphenyl)acetamido)benzamido)propanoic acid] | 
16 | 4.84 µM | 0.16 µM | CCCCCCCOc1ccc(C(=O)Oc2ccc(C[C@H](NC(=O)c3ccc(NC(=O)COCc4ccccc4)cc3)C(=O)O)cc2)cc1 [Compound 179, (S)-2-(4-(2-(benzyloxy)acetamido)benzamido)-3-(4-((4-(heptyloxy)benzoyl)oxy)phenyl)propanoic acid] | 
17 | 2.78 µM | 0.216 µM | CCCCCCCOc1ccc(C(=O)Oc2ccc([C@H](NC(=O)c3ccc(NC(=O)Cc4ccc(OC)cc4)cc3)C(=O)O)cc2)cc1 [Compound 263, (S)-2-(4-((4-(heptyloxy)benzoyl)oxy)phenyl)-2-(4-(2-(4-methoxyphenyl)acetamido)benzamido)acetic acid] | 
18 | > 10 µM | 0.027 µM | CCCCCCCOc1ccc(C(=O)Oc2ccc(CC(NC(=O)c3ccc(NC(=O)C4CCCC4)cc3)C(=O)O)cc2OC)cc1 (stereo not shown) [Compound 273, 2-(4-(cyclopentanecarboxamido)benzamido)-3-(4-((4-(heptyloxy)benzoyl)oxy)-3-methoxyphenyl)propanoic acid] | 0.69

From US8816121B2, “GLP-1 receptor stabilizers and modulators” (Receptos, Inc., priority 2010, dated 2014)
